# Measured values: the supplement of paper PMC10307832
# Legend:
# Experiment in all cases: relative viability (nuclei count vs DMSO), 5 days (fraction); higher = more cells survive
# [1] = test system: BEN
# Summary of the method: (§1)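 Medians of duplicate plates are given as relative viability. That measure is the nuclei count in treated wells divided by the count in vehicle wells. Counts were taken on 4× images of lung cancer cell lines in 1536-well plates, 5 days after pin-tool dosing the day after seeding with one drug alone or a fixed anchor-drug dose plus five library-drug doses (not always all listed) in √10 steps.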
# [2] = test system: NCI-H2087
# Summary of the method: as §1
# [3] = test system: 201T
# Summary of the method: as §1
# [4] = test system: NCI-H1651
# Summary of the method: as §1
# [5] = test system: NCI-H596
# Summary of the method: as §1
# [6] = test system: H3255
# Summary of the method: as §1
# [7] = test system: NCI-H1650
# Summary of the method: as §1
# [8] = test system: CAL-12T
# Summary of the method: as §1
# [9] = test system: NCI-H727
# Summary of the method: as §1
# [10] = test system: NCI-H1915
# Summary of the method: as §1
# [11] = test system: NCI-H2023
# Summary of the method: as §1
# [12] = test system: NCI-H441
# Summary of the method: as §1
# [13] = test system: NCI-H650
# Summary of the method: as §1
# [14] = test system: NCI-H1944
# Summary of the method: as §1
# [15] = test system: NCI-H520
# Summary of the method: as §1
# [16] = test system: A-427
# Summary of the method: as §1
# [17] = test system: NCI-H661
# Summary of the method: as §1
# [18] = test system: PC-3 [JPC-3]
# Summary of the method: as §1
# [19] = test system: NCI-H460
# Summary of the method: as §1
# [20] = test system: LCLC-97TM1
# Summary of the method: as §1
# [21] = test system: LC-2-ad
# Summary of the method: as §1
# [22] = test system: ABC-1
# Summary of the method: as §1
smiles,measurement,setting,value
COc1cc2nccc(Oc3ccc(NC(=O)Nc4cc(C)on4)c(Cl)c3)c2cc1OC [Tivozanib] + COc1cccc2cc(-c3nc([C@H]4CC[C@H](C(=O)O)CC4)n4ncnc(N)c34)[nH]c12 [OSI-027] (partner 0.5 µM),relative viability,[1]; first compound 0.005 µM,0.281
same,relative viability,[1]; first compound 0.01581 µM,0.306
same,relative viability,[1]; first compound 0.05 µM,0.311
same,relative viability,[1]; first compound 0.1581 µM,0.298
same,relative viability,[1]; first compound 0.5 µM,0.318
same,relative viability,[2]; first compound 0.005 µM,0.461
same,relative viability,[2]; first compound 0.01581 µM,0.6
same,relative viability,[2]; first compound 0.05 µM,0.558
same,relative viability,[2]; first compound 0.1581 µM,0.376
same,relative viability,[2]; first compound 0.5 µM,0.44
same,relative viability,[3]; first compound 0.005 µM,0.777
same,relative viability,[3]; first compound 0.01581 µM,0.798
same,relative viability,[3]; first compound 0.05 µM,0.36
same,relative viability,[3]; first compound 0.1581 µM,0.572
same,relative viability,[3]; first compound 0.5 µM,0.709
same,relative viability,[4]; first compound 0.005 µM,0.759
same,relative viability,[4]; first compound 0.01581 µM,0.721
same,relative viability,[4]; first compound 0.05 µM,0.737
same,relative viability,[4]; first compound 0.1581 µM,0.497
same,relative viability,[4]; first compound 0.5 µM,0.67
same,relative viability,[5]; first compound 0.005 µM,0.681
same,relative viability,[5]; first compound 0.01581 µM,0.596
same,relative viability,[5]; first compound 0.05 µM,0.866
same,relative viability,[5]; first compound 0.5 µM,0.59
same,relative viability,[6]; first compound 0.005 µM,0.571
same,relative viability,[6]; first compound 0.01581 µM,0.597
same,relative viability,[6]; first compound 0.05 µM,0.634
same,relative viability,[6]; first compound 0.1581 µM,0.47
same,relative viability,[6]; first compound 0.5 µM,0.556
same,relative viability,[7]; first compound 0.005 µM,0.524
same,relative viability,[7]; first compound 0.01581 µM,0.746
same,relative viability,[7]; first compound 0.05 µM,0.709
same,relative viability,[7]; first compound 0.1581 µM,0.591
same,relative viability,[7]; first compound 0.5 µM,0.558
same,relative viability,[8]; first compound 0.005 µM,0.583
same,relative viability,[8]; first compound 0.01581 µM,0.737
same,relative viability,[8]; first compound 0.05 µM,0.762
same,relative viability,[8]; first compound 0.1581 µM,0.364
same,relative viability,[8]; first compound 0.5 µM,0.418
same,relative viability,[9]; first compound 0.005 µM,0.501
same,relative viability,[9]; first compound 0.01581 µM,0.799
same,relative viability,[9]; first compound 0.05 µM,0.688
same,relative viability,[9]; first compound 0.1581 µM,0.434
same,relative viability,[9]; first compound 0.5 µM,0.68
same,relative viability,[10]; first compound 0.005 µM,0.594
same,relative viability,[10]; first compound 0.01581 µM,0.604
same,relative viability,[10]; first compound 0.05 µM,0.653
same,relative viability,[10]; first compound 0.1581 µM,0.523
same,relative viability,[10]; first compound 0.5 µM,0.49
same,relative viability,[11]; first compound 0.005 µM,0.393
same,relative viability,[11]; first compound 0.01581 µM,0.386
same,relative viability,[11]; first compound 0.05 µM,0.381
same,relative viability,[11]; first compound 0.1581 µM,0.272
same,relative viability,[11]; first compound 0.5 µM,0.324
same,relative viability,[12]; first compound 0.005 µM,0.453
same,relative viability,[12]; first compound 0.01581 µM,0.506
same,relative viability,[12]; first compound 0.05 µM,0.78
same,relative viability,[12]; first compound 0.1581 µM,0.563
same,relative viability,[12]; first compound 0.5 µM,0.344
same,relative viability,[13]; first compound 0.005 µM,0.489
same,relative viability,[13]; first compound 0.01581 µM,0.577
same,relative viability,[13]; first compound 0.05 µM,0.613
same,relative viability,[13]; first compound 0.1581 µM,0.44
same,relative viability,[13]; first compound 0.5 µM,0.398
same,relative viability,[14]; first compound 0.005 µM,0.396
same,relative viability,[14]; first compound 0.01581 µM,0.431
same,relative viability,[14]; first compound 0.05 µM,0.449
same,relative viability,[14]; first compound 0.1581 µM,0.344
same,relative viability,[14]; first compound 0.5 µM,0.447
same,relative viability,[15]; first compound 0.005 µM,0.244
same,relative viability,[15]; first compound 0.01581 µM,0.249
same,relative viability,[15]; first compound 0.05 µM,0.267
same,relative viability,[15]; first compound 0.1581 µM,0.167
same,relative viability,[15]; first compound 0.5 µM,0.313
same,relative viability,[16]; first compound 0.005 µM,0.458
same,relative viability,[16]; first compound 0.01581 µM,0.492
same,relative viability,[16]; first compound 0.05 µM,0.552
same,relative viability,[16]; first compound 0.1581 µM,0.434
same,relative viability,[16]; first compound 0.5 µM,0.368
same,relative viability,[17]; first compound 0.005 µM,0.672
same,relative viability,[17]; first compound 0.01581 µM,0.73
same,relative viability,[17]; first compound 0.05 µM,0.724
same,relative viability,[17]; first compound 0.1581 µM,0.646
same,relative viability,[17]; first compound 0.5 µM,0.688
same,relative viability,[18]; first compound 0.005 µM,0.665
same,relative viability,[18]; first compound 0.01581 µM,0.722
same,relative viability,[18]; first compound 0.05 µM,0.774
same,relative viability,[18]; first compound 0.1581 µM,0.591
same,relative viability,[18]; first compound 0.5 µM,0.733
same,relative viability,[19]; first compound 0.005 µM,0.626
same,relative viability,[19]; first compound 0.01581 µM,0.692
same,relative viability,[19]; first compound 0.05 µM,0.727
same,relative viability,[19]; first compound 0.1581 µM,0.622
same,relative viability,[19]; first compound 0.5 µM,0.578
same,relative viability,[20]; first compound 0.005 µM,0.52
same,relative viability,[20]; first compound 0.01581 µM,0.573
same,relative viability,[20]; first compound 0.05 µM,0.636
same,relative viability,[20]; first compound 0.1581 µM,0.476
same,relative viability,[20]; first compound 0.5 µM,0.455
same,relative viability,[21]; first compound 0.005 µM,0.784
same,relative viability,[21]; first compound 0.01581 µM,0.834
same,relative viability,[21]; first compound 0.05 µM,0.812
same,relative viability,[21]; first compound 0.1581 µM,0.71
same,relative viability,[21]; first compound 0.5 µM,0.512
same,relative viability,[22]; first compound 0.005 µM,0.456
same,relative viability,[22]; first compound 0.01581 µM,0.509
same,relative viability,[22]; first compound 0.05 µM,0.462
same,relative viability,[22]; first compound 0.1581 µM,0.359
same,relative viability,[22]; first compound 0.5 µM,0.395
